Converted amounts (≈) assume the structure as drawn. Read-outs that look alike come from different tables or passages of the source.
Columns and labels:
VZV strain Ellen = test: VZV antiviral (ELISA) assay; assay type: cell-based
Summary of the method: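 HFF cells infected with VZV Ellen at multiplicity below 0.1 overnight, then mixed infected/uninfected cells seeded with compound in DMEM/2% FBS and incubated three days at 37°C, 5% CO2.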

[1] = test system: HCMV recombinant mutant virus whose genome contains the prokaryotic beta-glucuronidase gene; test: microbe, parasite or virus in culture; assay type: cell-based, human cytomegalovirus; conditions: Human betaherpesvirus 5, Fibroblast
Summary of the method: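 Antiviral IC50 estimated from reduced reporter activity across compound amounts: lysates prepared 96 h after infection were tested with p-nitrophenyl- or methylumbelliferyl-glucuronide. Cells were human foreskin fibroblasts, infected alongside inhibitor with HCMV (e.g. RV145) expressing viral promoter-driven beta-glucuronidase.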

HSV- I = test: HSV antiviral (ELISA) assay; assay type: cell-based; conditions: read-out: IC50 (ug/ml) HSV
Summary of the method: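 IC50 from fluorescence versus untreated control in a cell ELISA: anti-glycoprotein D antibody, β-galactosidase-conjugated secondary, 4-methyl umbelliferone read at 365/450 nm. Vero cells (2% FBS DMEM) received compound 30 min pre-infection with HSV-1 at MOI 0.006, fixed ~24 h post-infection.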

[2] = Human alphaherpesvirus 3, HFF, read-out: IC50 (ug/ml) VZV, VZV strain Ellen, HFF cells, ELISA
[3] = read-out: IC50 ug/ml HCMV, HCMV, human foreskin fibroblasts
[4] = Human alphaherpesvirus 3, VZV strain Ellen, HFF cells, ELISA, read-out: IC50 (ug/ml) VZV

Row | SMILES | IC50 (VZV strain Ellen; [2]) | IC50 [1, 3] | IC50 (HSV- I; Vero) | IC50 (VZV strain Ellen; [4]) | IC50 ([1]; read-out: IC50 ug/ml HCMV) | IC50 (HSV- I; HSV- I, Vero cells, ELISA)
1 | CC(NC(=S)Nc1ccc(NC(=O)c2ccc(Cl)cc2)cc1)c1ccc(F)cc1 (stereo not drawn) [Example 756, 4-Chloro-N-(4-{3-[1-(4-fluoro-phenyl)-ethyl]-thioureido}-phenyl)-benzamide] | 0.3 µg/mL (≈ 0.701 µM) | > 10 µg/mL | > 10 µg/mL |  |  | 
2 | CC(=O)Oc1ccc(C(=O)Nc2ccc(NC(=S)NC(C)c3ccc(F)cc3)cc2)cc1 (stereo not drawn) [Example 757, Acetic acid 4-(4-{3-[1-(4-fluoro-phenyl)-ethyl]-thioureido}-phenylcarbamoyl)-phenyl ester] | 1.5 µg/mL (≈ 3.32 µM) | > 10 µg/mL | > 10 µg/mL |  |  | 
3 | CC(NC(=S)Nc1ccc(NC(=O)c2ccccc2)cc1)c1ccc(F)cc1 (stereo not drawn) [Example 758, N-(4-{3-[1-(4-Fluoro-phenyl)-ethyl]-thioureido}-phenyl)-benzamide] |  |  |  | > 10 µg/mL | > 10 µg/mL | > 10 µg/mL
4 | CC(NC(=S)Nc1ccc(NC(=O)c2ccc(O)cc2)cc1)c1ccc(F)cc1 (stereo not drawn) [Example 760, N-(4-{3-[1-(4-Fluoro-phenyl)-ethyl]-thioureido}-phenyl)-4-hydroxy-benzamide] |  |  |  | > 10 µg/mL | > 10 µg/mL | > 10 µg/mL
5 | CC(NC(=S)Nc1ccc(NC(=O)c2cccc(Cl)c2)cc1)c1ccc(F)cc1 (stereo not drawn) [Example 761, 3-Chloro-N-(4-{3-[1-(4-fluoro-phenyl)-ethyl]-thioureido}-phenyl)-benzamide] | > 10 µg/mL | 1.5 µg/mL (≈ 3.51 µM) | 10 µg/mL (≈ 23.4 µM) |  |  | 
6 | CCCCC(NC(=S)Nc1ccc(NC(=O)c2ccccc2F)cc1)c1ccc(F)cc1 (stereo not drawn) [Example 773, 2-Fluoro-N-(4-{3-[1-(4-fluoro-phenyl)-pentyl]-thioureido}-phenyl)-benzamide] | > 7.5 µg/mL | 1.2 µg/mL (≈ 2.65 µM) | > 10 µg/mL |  |  | 
7 | O=C(Nc1ccc(NC(=S)NC(Cc2ccccc2)c2ccc(F)cc2)cc1)c1ccccc1F (stereo not drawn) [Example 774, 2-Fluoro-N-(4-{3-[1-(4-fluoro-phenyl)-2-phenyl-ethyl]-thioureido}-phenyl)-benzamide] | > 7.5 µg/mL | 0.5 µg/mL (≈ 1.03 µM) | > 10 µg/mL |  |  | 
8 | Cc1ccccc1C(C)NC(=S)Nc1ccc(NC(=O)c2ccccc2F)cc1 (stereo not drawn) [Example 775, 2-Fluoro-N-{4-[3-(1-o-tolyl-ethyl)-thioureido]-phenyl}-benzamide] | > 7.5 µg/mL | 1 µg/mL (≈ 2.45 µM) | > 10 µg/mL |  |  | 
9 | Cc1cccc(C(C)NC(=S)Nc2ccc(NC(=O)c3ccccc3F)cc2)c1 (stereo not drawn) [Example 776, 2-Fluoro-N-{4-[3-(1-m-tolyl-ethyl)-thioureido]-phenyl}-benzamide] | > 7.5 µg/mL | 0.9 µg/mL (≈ 2.21 µM) | > 10 µg/mL |  |  | 
10 | COc1ccc(C(C)NC(=S)Nc2ccc(NC(=O)c3ccccc3F)cc2)cc1 (stereo not drawn) [Example 777, 2-Fluoro-N-(4-{3-[1-(4-methoxy-phenyl)-ethyl]-thioureido}-phenyl)-benzamide] | > 7.5 µg/mL | 1.7 µg/mL (≈ 4.01 µM) | > 10 µg/mL |  |  | 
11 | CC(NC(=S)Nc1ccc(NC(=O)c2ccccc2F)cc1)c1ccccc1F (stereo not drawn) [Example 778, 2-Fluoro-N-(4-{3-[1-(2-fluoro-phenyl)-ethyl]-thioureido}-phenyl)-benzamide] |  |  |  | 3 µg/mL (≈ 7.29 µM) | 0.8 µg/mL (≈ 1.94 µM) | > 10 µg/mL
12 | CC(NC(=S)Nc1ccc(NC(=O)c2ccccc2F)cc1)c1cccc(Cl)c1 (stereo not drawn) [Example 779, N-(4-{3-[1-(3-Chloro-phenyl)-ethyl]-thioureido}-phenyl)-2-fluoro-benzamide] | > 7.5 µg/mL | 1.2 µg/mL (≈ 2.8 µM) | > 10 µg/mL |  |  | 
13 | CC(NC(=S)Nc1ccc(NC(=O)c2ccccc2F)cc1)c1cccc(Br)c1 (stereo not drawn) [Example 780, N-(4-{3-[1-(3-Bromo-phenyl)-ethyl]-thioureido}-phenyl)-2-fluoro-benzamide] | 1.2 µg/mL (≈ 2.54 µM) | 1 µg/mL (≈ 2.12 µM) | > 10 µg/mL |  |  | 
14 | CC(NC(=S)Nc1ccc(NC(=O)c2ccccc2F)cc1)c1ccc(Cl)cc1 (stereo not drawn) [Example 781, N-(4-{3-[1-(4-Chloro-phenyl)-ethyl]-thioureido}-phenyl)-2-fluoro-benzamide] | 0.6 µg/mL (≈ 1.4 µM) | 1.8 µg/mL (≈ 4.21 µM) | > 10 µg/mL |  |  | 
15 | Cc1ccc(C(C)NC(=S)Nc2ccc(NC(=O)c3ccccc3F)cc2)cc1 (stereo not drawn) [Example 782, 2-Fluoro-N-{4-[3-(1-p-tolyl-ethyl)-thioureido]-phenyl}-benzamide] | 3 µg/mL (≈ 7.36 µM) | 0.9 µg/mL (≈ 2.21 µM) | > 10 µg/mL |  |  | 
16 | CC(NC(=S)Nc1ccc(NC(=O)c2ccccc2F)cc1)c1ccccc1Br (stereo not drawn) [Example 783, N-(4-{3-[1-(2-Bromo-phenyl)-ethyl]-thioureido}-phenyl)-2-fluoro-benzamide] | 0.3 µg/mL (≈ 0.635 µM) | 1.1 µg/mL (≈ 2.33 µM) | > 10 µg/mL |  |  | 

Reference: patent EP1137645B1, “ALPHA-METHYLBENZYL-CONTAINING THIOUREA INHIBITORS OF HERPES VIRUSES CONTAINING A […] GROUP” (Wyeth, priority 1998, dated 2000)
